Source: US5618804A, “Methanediphosphonic acid derivative, process for production thereof and use for pharmaceuticals” (Toray Industries, Inc., priority 1992, dated 1997)

Columns and labels:
[1] = test system: Mouse Macrophage Cell Line J774-1; test: Inhibition of IL-1 production by LPS-stimulated mouse macrophage cell line J774-1 (IL-1 activity by thymocyte proliferation); format: cell-based; details: 100 μM compound, 1 μg/ml LPS, 24 h, read-out: IL-1 production inhibition rate with respect to control group
Protocol: Effect Against Production of IL-1 by Mouse Macrophage Cell Line J774-1
With this cell line, the inhibitory effects to IL-1 production of the compounds according to the present invention were determined by the following procedure.
J774-1 cells were cultured in an RPMI-1640 culture medium containing 10% fetal calf serum and 50 μM of 2-mercaptoethanol, and prepared to a cell concentration of 2×10^5 cells/ml. The cell suspension was distributed into a 24-well plate to 1 ml per well, and cultured for 30 minutes. […]
A two-fold serial dilution was made of the above obtained sample in a 96-well multiplate to a volume of 50 μl per well, and 50 μl of the T cell suspension was added to each well. The T cells were cultured for 72 hours, and the IL-1 activity was determined by the rate of cell proliferation. The cell proliferation was calculated using as the value of the absorbance at 570 nm of the pigment produced upon reduction of 3-[4,5-dimethylthiazole-2-yl]-2,5-diphenyltetrazolium bromide by the mitochondria of the viable cells, added at 4 hours prior to completion of the culturing, with 100% proliferation defined as the maximum proliferation of T cells induced by recombinant human IL-1, 0% defined as proliferation with no addition of IL-1, and the units of the sample defined as the degree of dilution of the sample which caused 50% proliferation of the T cells. […]

neutrophils = test: Inhibition of active oxygen release from fMLP-stimulated human neutrophils (CLA chemiluminescence); format: cell-based; details: 10 μm (so in the source)
Protocol: Neutrophils are known to ingest foreign bodies for their removal and to produce active oxygen and digestive enzymes, as a biological defense mechanism. However, during chronic inflammation, etc., the active oxygen and digestive enzymes produced by neutrophils also damage normal tissue, and are thought to further reinforce inflammation. Here, the effects of the compounds according to the present invention against the release of active oxygen from neutrophils were determined in the following manner.
Using 3.8% sodium citrate as an anticoagulant, 50 ml of blood was taken from a human vein. […] Of these neutrophils, 1×10^5 cells were incubated at 37° C. with […] of the stimulant, formyl-methionyl-leucyl-phenylalanine (fMLP), and at the same time the compounds according to the present invention were added thereto and the production of active oxygen was measured. For the measurement of the active oxygen, 2-methyl-6-phenyl-3,7-dihydroimidazo [1,2a]pyrazine-3-one (CLA) was reacted therewith resulting in excited carbonyl compounds, and utilizing the phenomenon whereby light is emitted at 380 nm during their transition to ground state, the maximum luminescence intensity was measured with a luminometer. The inhibition rate against active oxygen production was calculated according to the following equation. […]

Rabbit cartilage cells = test: IL-1-inhibiting effect: proteoglycan degradation in IL-1-stimulated rabbit cartilage cells; format: cell-based, rabbit (New Zealand white); details: IL-1-stimulated (30 units/ml rhIL-1β), 100 μM compound, 24 h
Protocol: Rabbit cartilage cells are separated from knee joint and cultured. When they are stimulated with IL-1, proteoglycan, the main constituent glycoprotein of cartilage cells, is degraded. Using this consequence as an index, the IL-1-inhibiting effects of the compounds according to the present invention were determined in the following manner.
Three-week-old male New Zealand white rabbits weighing 250 g-300 g were sacrified under diethyl ether anesthesia, and their knee joints were separated. The cartilaginous sections were cut out from the knee joint with a scalpel, and then immersed in CMF solution containing 0.14M sodium chloride, 4 mM potassium chloride, 0.4 mM sodium dihydrogen phosphate, 12 mM sodium bicarbonate, 0.2 mM potassium dihydrogen phosphate and 11 mM glucose. The cartilage was placed in 0.1% EDTA and incubated at 37° C. for 20 minutes. The supernatant was removed off, 0.15% trypsin was added to the mixture, and then that was incubated at 37° C. for 60 minutes. The mixture was washed 3 times with CMF solution, and then placed in […] and further treated at 37° C. for 105 minutes. […]
Each of the obtained counts was divided by the count at the initial addition of inorganic sulfuric acid, and expressed as a percentage. […]

adjuvant arthritis = test: Adjuvant arthritis test (foot edema and osteoclasia); format: in vivo, rat (7-week-old female Lewis rats); details: 20 mg/kg s.c., days 8-21; for Inhibition rate of osteoclasia with respect to control group: 22nd day, left and right hind legs, soft X-ray
osteoclasts = test: Inhibition of active-type vitamin D3-stimulated bone resorption (resorption pit formation on dentin slices); format: cell-based, mouse (ICR); details: 10 nM active-type vitamin D3, 4 days
Text: In conditions of osteoporosis, it is thought that the balance between bone formation and bone resorption is lost, with bone resorption being accelerated. Bone resorption is thought to occur due to the activation and increase in the number of osteoclasts, and a model thereof is an experiment in which mouse osteocytes are planted on dentin slices, causing bone resorption due to the stimulation of active-type vitamin D3. Using this model, the bone resorption-inhibiting effects of the compounds according to the present invention were determined.
The femurs and tibias were separated from 10 to 15- day-old ICR mice, and minced in an α-MEM culture medium containing 5% fetal calf serum, and an osteoclast suspension was prepared containing bone marrow cells and bone matrix. The large bone fragments were removed using a nylon mesh, and the viable cells were stained using trypan blue staining, while the osteoclasts were stained using tartaric acid-resistant acidic phosphatase staining, and a cell suspension was prepared which contained the osteoclasts at a proportion of about 0.05-0.1%. The dentin was cut to thicknesses of 150 μm using a low-speed rotating diamond cutter, and punched with a puncher to the size of wells of a 96-well plate. The dentin slices were placed in a 96-well plate, and the cell suspension prepared as described above was placed thereupon to a concentration of 500 osteoclasts per well. As a stimulant, 10 nM active-type vitamin D3 was added thereto, and at the same time the preparations according to the present invention were added thereto to concentrations of 10 μM and 100 μM. The cells were cultured at 37° C. in 10% CO2 environment, and after 4 days' culture the resorption pits which formed on the dentin slices were stained with hematoxylin, and then observed under a microscope and counted. The rate of inhibition of resorption pit formation was calculated according to the following equation. [formula]
The results were indicated with "*" in cases where, based on statistical calculation using the Student t-test, the level of significance was P<0.05 and with "**" in cases where the level of significance was P<0.01 with respect to the active-type vitamin D3 -stimulated control group.

SMILES | inhibition at 100 µM [1] [%] | Active oxygen production inhibition rate (neutrophils) [%] | proteoglycan count in cell layer relative to count at initial addition of inorganic sulfuric acid (Rabbit cartilage cells; not stimulated 0.45, IL-1-stimulated control 0.11) | proteoglycan count in supernatant relative to count at initial addition of inorganic sulfuric acid (Rabbit cartilage cells; not stimulated 0.63, IL-1-stimulated control 1.06) | Inhibition rate of osteoclasia with respect to control group (adjuvant arthritis) [%] | Inhibition rate of edema with respect to control group (adjuvant arthritis; left paw, 17th day) [%] | Inhibition rate of edema with respect to control group (adjuvant arthritis; left paw, 21st day) [%] | Inhibition rate of edema with respect to control group (adjuvant arthritis; right paw, 17th day) [%] | Inhibition rate of edema with respect to control group (adjuvant arthritis; right paw, 21st day) [%] | Inhibition rate (resorption pit formation) with respect to control (osteoclasts; 10 μM) [%] | Inhibition rate (resorption pit formation) with respect to control (osteoclasts; 100 μM) [%] | Inhibition rate of edema with respect to control group (adjuvant arthritis; left paw, 16th day) [%] | Inhibition rate of edema with respect to control group (adjuvant arthritis; right paw, 16th day) [%]
O=P(O)(O)C(Sc1ccc2ccccc2c1)P(=O)(O)O [Example 2, 2-naphthylthiomethane Diphosphonic Acid] | 41.7 | 29.4 ± 6.58 | 0.31 ± 0.011 | 0.78 ± 0.015 | 75.2 | 76.8 | 94.5 | 35.2 | 44.3 | 18.8 ± 6.23 | 92.1 ± 0.43 |  | 
COc1ccc2cc(SC(P(=O)(O)O)P(=O)(O)O)ccc2c1 [Example 4, 6-Methoxy-2-naphthylthiomethanediphosphonic Acid] |  |  |  |  | 55.2 | 80.0 | 93.0 | 40.8 | 33.4 | 47.7 ± 2.18 | 94.8 ± 1.04 |  | 
O=P(O)(O)C(Sc1ccc2cc(O)ccc2c1)P(=O)(O)O [Example 6, 6-Hydroxy-2-naphthylthiomethanediphosphonic Acid] |  |  |  |  | 60.3 |  | 117.3 |  | 39.9 | 30.6 ± 12.5 | 90.8 ± 1.33 | 85.6 | 31.8
